From paper PMC12010006, “Subnanomolar MAS-related G protein-coupled receptor-X2/B2 antagonists with efficacy in human mast cells and disease models” (Signal Transduction and Targeted Therapy, 2025)
pEC50: −log10 of the molar value.

Experiments:
[1] = target: T1, MRGPRX1 (Homo sapiens, UniProt Q96LB2); assay: β-arrestin assay, CHO cells expressing MRGPRX1 (subtype selectivity); type: cell-based; conditions: 10 µM, versus BAM-22P (8.5 µM)
T1 construct: host or cells: CHO-K1 beta-arrestin-2 (EA) cells
Method: Fig. 1 Characterization of MRGPRX2 inhibitor 1. a Chemical structure and molecular weight (MW) of 1. b Concentration-response curve of 1 determined in β-arrestin recruitment assays. CHO cells that recombinantly express MRGPRX2 were employed versus the agonist CST-14 (at its EC80 value of 1.0 µM). […] Data are means ± SEM of 3 biological replicates, performed in duplicates. c MRGPRX subtype selectivity of 1 (10 µM) determined in β-arrestin assays using CHO cells that recombinantly express the respective MRGPRX subtype. MRGPRX1 was activated by BAM-22P (8.5 µM),[19] MRGPRX2 was activated by CST-14 (1 µM), MRGPRX3 was activated by PSB-20294 (1 µM), and MRGPRX4 by PSB-18061 (2.6 µM).[44] […] The effect of each MRGPRX agonist was assessed in the absence and in the presence of 1; results were normalized to the maximal agonist effect. […] Statistical significance was determined by one-way ANOVA (Tukey’s multiple comparisons) test (ns P > 0.05 and ****P < 0.0001) TEXT PRINTED IN THE PICTURE: (a) 1 Hit compound: MW: 241.29 g/mol
Fig. 3 Biological characterization of PSB-172656. a Selectivity of PSB-172656 (100 nM) for MRGPRX2 over MRGPRX1, MRGPRX3, and MRGPRX4 measured in β-arrestin assays utilizing β-arrestin-CHO cells with recombinant expression of the respective receptor. […] Statistical significance was determined by one-way ANOVA (Tukey’s multiple comparison) test (ns P > 0.05). […]

[2] = target: T2, MRGPRX2 (Homo sapiens, UniProt Q96LB1); assay: β-arrestin assay (agonist mode), β-arrestin CHO cells recombinantly expressing MRGPRX2; type: cell-based; conditions: for pEC50: agonist test, read-out: β-Arrestin assay EC50 ± SEM; for β-Arrestin assay % activation: normalized to CST-14 (EC80 5,000 nM)
T2 sequence (Q96LB1 1-330): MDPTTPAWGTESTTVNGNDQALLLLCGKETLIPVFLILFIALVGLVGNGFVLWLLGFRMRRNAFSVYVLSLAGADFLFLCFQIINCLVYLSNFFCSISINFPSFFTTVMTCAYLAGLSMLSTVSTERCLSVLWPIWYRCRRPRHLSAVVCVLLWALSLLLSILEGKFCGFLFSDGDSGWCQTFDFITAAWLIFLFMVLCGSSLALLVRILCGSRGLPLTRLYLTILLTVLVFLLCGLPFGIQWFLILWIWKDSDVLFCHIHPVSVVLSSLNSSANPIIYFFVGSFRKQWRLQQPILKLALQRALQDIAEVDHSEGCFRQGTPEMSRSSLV
Excerpt: Eurofins DiscoverX (Fremont, CA, USA) provided engineered Chinese hamster ovary (CHO) cells stably expressing β-arrestin-2 fused to a large β-galactosidase fragment (enzyme acceptor, EA). These CHO-K1-β-arrestin-2 cells were commercially available (93-0164). CHO-K1-β-arrestin-2 cells that additionally expressed MRGPRX1, -2, or -4 fused to the fragment ProLink™ (PK) were also purchased from the same company (93-0919C2, 93-0309C2, and 3-0541C2A, respectively). CHO cells expressing MRGPRX3 were generated as previously […].[31] The cells were grown in F-12 Ham Nutrient Mixture (Life Technologies) supplemented with 10% FBS, 100 U/mL of penicillin, 100 µg/mL of streptomycin (PAN-Biotech), 300 μg/mL of hygromycin B (PAN-Biotech), and 800 μg/mL of gentamicin (PAN-Biotech) at 37 °C and 5% CO2.).
The assays were carried out as previously described.[22] […] After 30 min of incubation at 37 °C and 5% CO2, Cortistatin-14 (CST-14, Bioscience, Bristol, United Kingdom) or another MRGPRX2 agonist that served as a standard agonist was added, and the mixture was incubated for 90 min at 37 °C and 5% CO2. Next, a detection reagent (50 µL, DiscoverX) was added, and the mixture was incubated at room temperature in the dark for 60 min. Chemiluminescence was measured on a Mithras LB 940 plate reader (Berthold Technologies, Bad Wildbad, Germany). The results represent means ± SEM of three to five independent experiments, each in duplicates.
^d β-Arrestin CHO cells recombinantly expressing MRGPRX2
^f Percentage of activation of normalized to CST-14 (EC80 5,000 nM)

T1 sequence (Q96LB2 whole entry): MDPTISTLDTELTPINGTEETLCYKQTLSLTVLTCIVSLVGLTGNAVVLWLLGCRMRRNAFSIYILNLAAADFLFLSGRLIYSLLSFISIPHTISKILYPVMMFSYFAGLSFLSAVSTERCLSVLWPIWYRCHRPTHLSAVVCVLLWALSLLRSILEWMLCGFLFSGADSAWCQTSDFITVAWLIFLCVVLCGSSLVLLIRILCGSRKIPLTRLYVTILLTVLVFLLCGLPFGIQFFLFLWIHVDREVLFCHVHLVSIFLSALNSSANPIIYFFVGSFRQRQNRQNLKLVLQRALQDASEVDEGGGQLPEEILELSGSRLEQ

| inhibition of MRGPRX1 activation [1] | pEC50 [2] | β-Arrestin assay % activation [2] [%] | Compound |
| --- | --- | --- | --- |
| no inhibition | < 5.00 | 1 | CCCc1c(C)[nH]c2nc3ccccc3n2c1=O [Compound 1, 2-methyl-3-propylbenzo[4,5]imidazo[1,2-a]pyrimidin-4(1H)-one] |
| not able to block | < 5.00 | -1 | CCc1c(C(C)C)[nH]c2nc3cc(F)c(F)cc3n2c1=O [Compound 24, 3-ethyl-7,8-difluoro-2-isopropylbenzo[4,5]imidazo [1,2-a] pyrimidin-4(1H)-one] |
